The values below come from ChEMBL document CHEMBL5528001, “Synthetic product-based approach toward potential antileishmanial drug development” (Eur J Med Chem, 2024).

Series [1] deals with Leishmania amazonensis. The experiment in a line: Antileishmanial activity against Leishmania amazonensis promastigotes assessed as inhibition of parasite growth. Format: functional. Set-up: scale not given: the % may be the effect or the level left.
The test system of series [2] is Leishmania donovani. The experiment in a line: Antileishmanial activity against Leishmania donovani promastigotes assessed as inhibition of parasite growth. Format: functional, organism-based.
In series [3] the test system is J774.A1. Nature of the series: Cytotoxicity against mouse J774.A1 cells assessed as reduction in cell viability incubated for 72 hrs by MTT assay. Format: functional. (In general: Formazan colour is commonly taken as a measure of viable cells.)
For series [4], the system named is Leishmania infantum. The experiment in a line: Antileishmanial activity against Leishmania infantum promastigote assessed as reduction in parasite growth after 72 hrs by MTT assay. Format: functional, organism-based.
In series [5] the test system is Leishmania mexicana. Nature of the series: Antileishmanial activity against Leishmania mexicana promastigotes. Format: functional, organism-based.
The test system of series [6] is Leishmania donovani. Nature of the series: Antileishmanial activity against Leishmania donovani promastigotes assessed as parasitic proliferation inhibition incubated for 3 days by resazurin dye based assay. Format: functional, organism-based. (In general: Alamar Blue is a resazurin reagent that responds to reducing activity.)
Series [7] concerns Leishmania donovani. The experiment in a line: Antileishmanial activity against Leishmania donovani MHOM/SD/62/1S-CL2D promastigotes assessed as reduction in parasite growth incubated for 24 hrs by resazurin dye based analysis. Format: functional, organism-based.
In series [8] the test system is Leishmania donovani. The experiment in a line: Antileishmanial activity against Leishmania donovani amastigotes assessed as parasite growth inhibition incubated for 72 hrs by MTS assay. Format: functional, organism-based.
In series [9] the test system is Leishmania donovani. The experiment in a line: Antileishmanial activity against Leishmania donovani amastigotes. Format: functional, organism-based.
The nature of series [10]: Cytotoxicity against HEK293 cells assessed as reduction in cell viability incubated for 6 days by CellTiter-Glo luminescent cell viability assay. Format: toxicity, cell-based. The note with it: human. A general note: Cellular ATP, detected with luciferase, serves as a proxy for viable cell number.
Series [11] deals with Leishmania major. Nature of the series: Antileishmanial activity against Leishmania major amastigotes assessed as reduction in parasite viability measured for 72 hrs by Giemsa-staining based microscopic analysis. Format: functional, organism-based.
In series [12] the test system is HepG2. Nature of the series: Antiproliferative activity against human HepG2 cells assessed as reduction in cell viability incubated for 72 hrs by MTT assay. Format: functional, cell-based. The note with it: HepG2, 72 h.
Series [13] deals with Leishmania major. Nature of the series: Antileishmanial activity against Leishmania major promastigotes assessed as reduction in parasite viability measured after 72 hrs by Giemsa-staining based microscopic analysis. Format: functional, organism-based.
Series [14] relates to Leishmania donovani. The experiment in a line: Antileishmanial activity against Leishmania donovani MHOM/IN/00/DEVI assessed as inhibition of parasite growth measured for 48 hrs by MTT assay. Format: functional, organism-based.
Series [15] has as its system HepG2. Nature of the series: Cytotoxicity against human HepG2 cells assessed as reduction in cell growth measured after 48 hrs by SRB assay. Format: functional.
In series [16] the test system is Leishmania major. Nature of the series: Antileishmanial activity against Leishmania major assessed as reduction in parasite growth. Format: functional, organism-based.
Series [17] concerns Leishmania braziliensis. Nature of the series: Antileishmanial activity against Leishmania braziliensis MHOM/BR/75/M2903 strain promastigotes assessed as reduction in cell viability incubated for 48 hrs by MTT assay. Format: functional, organism-based. The note with it: MHOM/BR/75/M2903, 48 h.
Series [18] has as its system Leishmania donovani. The experiment in a line: Antileishmanial activity against Leishmania donovani MHOM/SD/62/1S assessed as inhibition of parasite growth by resazurin/alamar blue fluorometric assay. Format: functional, organism-based.
Series [19] relates to Leishmania major. Nature of the series: Antileishmanial activity against Leishmania major IR-173 promastigotes assessed as inhibition of parasite growth incubated for 48 hrs by resazurin dye based assay. Format: functional, organism-based. The note with it: IR-173, 48 h.
In series [20] the test system is Leishmania donovani. Nature of the series: Antileishmanial activity against Leishmania donovani 9515 promastigotes assessed as inhibition of parasite growth incubated for 48 hrs by resazurin dye based assay. Format: functional, organism-based. The settings on record: Leishmania donovani, 9515, 48 h.
Series [21] concerns Leishmania donovani. The experiment in a line: Antileishmanial activity against Leishmania donovani amastigotes infected in J774.A1 macrophage assessed as inhibition of parasite growth by luciferase assay. Format: functional, organism-based.
For series [22], the system named is Leishmania donovani. Nature of the series: Antileishmanial activity against Leishmania donovani amastigotes infected in human THP-1 cells assessed as inhibition of parasite infection incubated for 72 hrs by DAPI staining based assay. Format: functional, organism-based. The note with it: THP-1, 72 h.
Series [23] in a line: Cytotoxicity against African green monkey Vero cells assessed as reduction in cell growth. Format: toxicity, cell-based, Chlorocebus sabaeus.
In series [24] the test system is Leishmania braziliensis. Nature of the series: Antileishmanial activity against Leishmania braziliensis promastigotes. Format: functional, organism-based.
Series [25] has as its system Leishmania amazonensis. The experiment in a line: Antileishmanial activity against Leishmania amazonensis IFLA/BR/1967/PH8 amastigotes infected in murine peritoneal macrophages incubated for 24 hrs by Giemsa staining based analysis. The settings on record: IFLA/BR/1967/PH8, 24 h. Format: functional, organism-based.
Series [26] relates to Leishmania donovani. The experiment in a line: Antileishmanial activity against Leishmania donovani promastigotes assessed as parasite growth inhibition incubated for 72 hrs by alamar blue staining based assay. Format: functional, organism-based.
Series [27] has as its system Leishmania infantum. The experiment in a line: Antileishmanial activity against Leishmania infantum MON-1 promastigotes assessed as reduction in parasite viability measured after 48 hrs by MTT assay. Format: functional, organism-based. The settings on record: MON-1, 48 h.

Each structure is given as a SMILES string. pEC50, pIC50: −log10 of the molar value. Values after ≈ are worked out from the molar mass of the structure shown.

Take `CC(C)CC1NC(=S)NC1=O` (stereo not drawn): the Activity in [1] turned out to be 32%.

Turning to `Cc1cc(O)c(C(=O)Nc2ccc(Br)cc2)c(=O)n1C1CC1`, in [2], the pIC50 (commonly −log10 of the IC50, conventionally taken in molar units) was 4.26. `CC1(C)CC(=O)c2cc(CNC(=O)CCCCCCCCBr)ccc2S1`: in [3], the CC50 – broadly, the concentration at which the toxic effect on the cells reaches its halfway point – stood at 58 µM. Moreover, the pIC50 in series [4] is 5.14. Compound `COc1cc(/C=C/C(=O)c2ccccc2Cl)ccc1OCC=C(C)C` had a pIC50 in [5] of 5.09.

`CCOC(=O)C1=CNC(=S)NC1c1ccc(Cl)cc1` (stereo not drawn): the IC50 (in general, the concentration that inhibits the measured activity by half) in series [6] (Leishmania donovani, 72 h, read-out: IC50) was 29.3 mg/L (≈ 98.7 µM). With `CCCCCCCCCCCCCCCC(=O)CC(=O)N1CCC[C@H]1COP(=O)([O-])OCC[N+](C)(C)C`, the pIC50 in series [7] was 4.28. As for `C#CCN1C(=O)CN(/N=C/c2ccc([N+](=O)[O-])o2)C1=O`, the pIC50 was 5.52 in [8] and 6.41 in series [9]. Besides, the IC50 at 6 days in [10] was 88.5 µM.

Regarding `COC(=O)C1=C(C)NC(C)=C(C(=O)OC)C1c1cccc(Cl)c1`, the pEC50 (usually the negative decadic logarithm of the EC50, by convention in mol/L) in series [11] was 5.27.

As to `Cc1cc(C)cc(-n2cc(CNC(=O)c3c(C)nc4c5ccccc5c5ccccc5n34)nn2)c1`, the negative logarithm of the EC50 (pEC50) in [12] is over 4.52.

Regarding `Cc1cc(O)c(C(=O)Nc2ccccc2)c(=O)n1Cc1cccc(Cl)c1Cl`, in series [2], the pIC50 was 4.26. On the same count and under the same terms, for `COc1ccc(Cn2c(C)cc(O)c(C(=O)Nc3ccc(C)cc3)c2=O)cc1` the value was 4.26. Take `CCOC(=O)C1=C(C)NC(C)=C(C(=O)OCC)C1c1cccc(Cl)c1`: the pEC50 in series [13] is 4.98; in series [11], 5.66. Take `C(=N/CCCN(c1ccncc1)c1ccncc1)/c1cc(-c2ccccc2)c2ccc3c(-c4ccccc4)cc(/C=N/CCCN(c4ccncc4)c4ccncc4)nc3c2n1`: the pIC50 in series [14] was 5.60. For the same compound, in series [15], the CC50 came out at 1.64 µM.

Consider `Cc1nc2ccc(Cl)cn2c1C(=O)N1CCN(Cc2cn(-c3ccc(Br)cc3)nn2)CC1`, for which, in series [16], the pIC50 was 4.82. As for `C/C=C1\NC(=S)NC1=O`, the Activity in series [1] was 28%. With `CCCCCCCCCn1cc(CN2CCN(C(=O)c3c(C)nc4ccc(C)cn34)CC2)nn1`, the pIC50 in [16] is 4.82. As for `CC(C)=CC1=C(OC(=O)CCc2cn(-c3cccc(Cl)c3)nn2)C(=O)c2ccccc2C1=O`, the pIC50 in [17] was 4.78. In the case of `O=C(N/N=C/c1ccc([N+](=O)[O-])o1)c1ccc(OCc2ccc(F)cc2)cc1`, the pIC50 is 6.64 in series [18], 6.55 in [19] and 6.07 in [20]. With `CC(=O)N1N=C(c2ccccc2)CC1c1cn(-c2ccc(C)cc2)nc1-c1ccccc1` (stereo not drawn), the pIC50 in [21] is 7.30; in series [22], 6.00. For `C(=N/CCCN(c1cccnc1)c1cccnc1)/c1cc(-c2ccccc2)c2ccc3c(-c4ccccc4)cc(/C=N/CCCN(c4cccnc4)c4cccnc4)nc3c2n1`, the pIC50 in [14] was 5.60. Besides, the CC50 in series [15] was 1.64 µM. Regarding `COC(=O)C1=C(C)NC(=S)NC1c1ccc(Cl)cc1` (stereo not drawn), the pEC50 in series [13] was 4.81.

With `Cc1cc(OCCCCNC(C)(C)C)cc2oc3cc(OCCCCNC(C)(C)C)cc(O)c3c(=O)c12`, the pIC50 in [23] was 4.81; in [24], 7.00. `O=C(CC[Se]c1ccnc2cc(Cl)ccc12)Nc1ccc([N+](=O)[O-])cc1`: in [25], the pIC50 was 5.25. As to `CN(C)CCCNC(=O)c1ccc2cc(Cl)ccc2n1`, the pIC50 in series [26] is 5.23. Take `Cc1cc(O)c(C(=O)Nc2ccccc2)c(=O)n1Cc1ccc(Cl)cc1`: the pIC50 in series [2] was 4.26. `O=C(C[Se]CC(=O)Nc1ccc([N+](=O)[O-])cc1)Nc1ccc([N+](=O)[O-])cc1`: the negative logarithm of the IC50 (pIC50) in [25] is 4.97. For the compound `CCOC(=O)c1cc2c([nH]c3ccccc32)c(-c2ccccn2)n1`, the negative-log EC50 (pEC50) in series [27] was under 4.53. With `CCOC(=O)C1=CNC(=O)NC1c1ccc(C)cc1` (stereo in doubt; 82), in [6], the IC50 came out at 28.3 mg/L (≈ 109 µM).
